Data on 19 compounds can be found in publication PMC11650849, “Brain endothelial permeability, transport, and flow assessed over 10 orders of magnitude using the in situ brain perfusion technique” (Fluids and Barriers of the CNS, 2024).

Series [1] can be described thus: Octanol/water partition and distribution coefficients. As to conditions: for Log Doct 7.4: octanol distribution coefficient, pH 7.4; for Log Poct: octanol partition coefficient.
The next series deals with Lat-1 (Rattus norvegicus, UniProt Q63016).
Sequence of Lat-1 (Q63016 whole entry, the tested form may be a part): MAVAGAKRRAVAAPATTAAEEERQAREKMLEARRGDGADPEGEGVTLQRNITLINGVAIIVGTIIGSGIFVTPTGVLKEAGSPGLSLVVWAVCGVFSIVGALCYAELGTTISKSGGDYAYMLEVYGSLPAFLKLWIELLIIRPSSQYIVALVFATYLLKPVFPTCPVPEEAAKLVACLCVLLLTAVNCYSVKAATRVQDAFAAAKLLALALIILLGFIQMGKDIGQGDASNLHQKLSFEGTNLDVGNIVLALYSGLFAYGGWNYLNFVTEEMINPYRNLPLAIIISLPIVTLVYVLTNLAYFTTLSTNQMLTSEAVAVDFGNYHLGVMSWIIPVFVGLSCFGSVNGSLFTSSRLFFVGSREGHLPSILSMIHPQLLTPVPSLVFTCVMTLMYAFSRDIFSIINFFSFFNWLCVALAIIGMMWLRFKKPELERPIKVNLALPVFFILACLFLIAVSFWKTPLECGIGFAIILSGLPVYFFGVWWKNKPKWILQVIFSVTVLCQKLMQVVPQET
Sequence of Lat-1 (Q794F9 whole entry partner, the tested form may be a part): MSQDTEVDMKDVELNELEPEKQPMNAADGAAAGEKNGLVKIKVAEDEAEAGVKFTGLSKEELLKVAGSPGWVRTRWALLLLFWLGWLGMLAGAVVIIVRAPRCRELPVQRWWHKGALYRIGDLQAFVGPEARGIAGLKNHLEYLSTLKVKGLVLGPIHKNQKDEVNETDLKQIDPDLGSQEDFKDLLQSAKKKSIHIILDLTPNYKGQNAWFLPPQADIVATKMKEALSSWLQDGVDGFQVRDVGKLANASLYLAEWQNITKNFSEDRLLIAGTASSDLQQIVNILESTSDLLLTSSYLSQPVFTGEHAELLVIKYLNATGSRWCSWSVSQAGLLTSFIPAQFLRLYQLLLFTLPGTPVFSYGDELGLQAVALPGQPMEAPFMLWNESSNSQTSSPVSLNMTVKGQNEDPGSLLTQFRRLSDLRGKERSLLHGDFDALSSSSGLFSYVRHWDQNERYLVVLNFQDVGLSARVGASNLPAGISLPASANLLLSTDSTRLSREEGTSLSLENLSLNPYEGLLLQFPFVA
Series [2] is described as follows: Neutral fraction at pH 7.4 calculated from pKa. The format is physicochemical. The following applies: neutral fraction at perfusion fluid pH 7.40, calculated from pKa.
For series [3] the following is noted: rat.
For series [4] the following is noted: rat, in vivo, pH 7.4.
For series [5] the following is noted: for Brain Kin: calculated at brain blood flow […] and rat serum fu; for Extraction (unbound) / Brain vascular extraction (total): calculated at brain blood flow […]; for Extraction (unbound): free drug; for Brain vascular extraction (total): with rat serum fu.
The conditions of series [6]: ref Hansch et al. [123], Avdeef [46] or other sources, cited from earlier work; for Log Poct: octanol partition coefficient.
The conditions of series [7]: rat in vivo measurements; cited from earlier work.
For series [8] the following is noted: rat in vivo measurements; cited from earlier work. The source holds these as a separate data set.
For another series, the system named is Choline transporter. As to conditions: facilitated nutrients.
A short description of a further series: in vivo. As to conditions: rat, pH 7.4.
A short description of series [9]: In situ rat brain perfusion (brain uptake Kin, extraction E, BBB PS).
Setting [10] is: LAT1 substrates, tracer concentration.
The mark [11] stands for this setting: LAT1 substrates, tracer concentration, perfusion 15-30 s.

A word on the half-life: it is the time needed for the level to fall by half in the phase considered. Read a low half-life as fast loss.

Each structure is given as a SMILES string. Read-outs that look alike come from different tables or passages of the source.

On to `Nc1ncnc2c1ncn2[C@@H]1O[C@H](CO)[C@@H](O)[C@H]1O` [Adenosine], for which the “Log Doct 7.4” value in [1] is listed as −1.02.
On Lat-1 (setting [10]), `N[C@@H](Cc1ccc(O)c(O)c1)C(=O)O` [L-DOPA] came in with a LogPS of −1.99. The compound further yielded a PS on Lat-1 (setting [11]) of 0.0102 mL/s/g. Besides, in series [1], the “Log Doct 7.4” value is listed as −2.7 and the “Log Poct” value was −0.22.
`Nc1ccn([C@@H]2O[C@H](CO)[C@@H](O)C2(F)F)c(=O)n1` [Gemcitabine]: in series [1], the “Log Doct 7.4” value was −1.36 and the “Log Poct” value is −0.470.
In turn, `CC(C)C[C@H](N)C(=O)O` [L-Leucine] came in with a LogPS at Lat-1 (setting [10]) of −1.45. Further, the PS at Lat-1 (setting [11]) worked out at 0.0354 mL/s/g. In addition, the “Log Doct 7.4” value in series [1] is 0.73.
Take `Nc1ncnc2nc[nH]c12` [Adenine]: the “Log Doct 7.4” value in series [1] is −2.12.
For `N[C@@H](Cc1ccccc1)C(=O)O` [L-Phenylalanine], on Lat-1 (setting [10]), the LogPS is reported as −1.108. The compound also showed a PS on Lat-1 (setting [11]) of 0.078 mL/s/g. In series [1], the “Log Doct 7.4” value is recorded as −1.46 and the “Log Poct” value was determined as 1.110.
Compound `CNC[C@H](N)C(=O)O` [L-BMAA] gave a LogPS on Lat-1 (setting [10]) of −3.27. Besides, the PS on Lat-1 (setting [11]) was 0.000542 mL/s/g. Also, in series [1], the “Log Doct 7.4” value is reported as −3.4 and the “Log Poct” value is −0.85.
In the case of `OC[C@H]1O[C@H](OC[C@H]2O[C@H](O[C@]3(CO)O[C@H](CO)[C@@H](O)[C@@H]3O)[C@H](O)[C@@H](O)[C@@H]2O)[C@H](O)[C@@H](O)[C@H]1O` [Raffinose], in series [2], the “fn (%)” value is 100%. This compound showed a half-life in [3] (brain) of 405 min. For the same compound, in series [4], the “Log Pc” value is −8.02, the “Log PoS” value is listed as −6.02, the Pc was 0.0095 ×10⁻⁶ cm/s and the PcS came out at 9.5e-07 mL/s/g. Further, in [4], the PoS stood at 9.5e-07 mL/s/g, the “Log Po” value is recorded as −8.02 and the Po was found to be 9.5e-09 cm/s. In addition, in series [5], the “Brain Kin” value was 9.5e-07 mL/s/g, the “Extraction (unbound)” value was 3.96E-05% and the “Brain vascular extraction (total)” value is given as 3.96E-05%. In series [6], the “Log Poct” value is on record as −3.89 and the “Log Doct pH=7.4” value is on record as −3.89. In addition, the “fu,.p” value in [7] is 1.00. In addition, the “Brain Vu,br” value in series [8] is on record as 0.03 mL/g.
`O=C1NC(=O)C(c2ccccc2)(c2ccccc2)N1` [Phenytoin]: in series [2], the “fn (%)” value is 88.4%. The compound also showed a half-life in [3] (brain) of 6.02 min. Further, in series [4], the “Log Pc” value is −3.58, the “Log PoS” value is on record as −1.53, the Pc is 263 ×10⁻⁶ cm/s and the PcS was found to be 0.026 mL/s/g. In series [4], the PoS was 0.0298 mL/s/g, the “Log Po” value is −3.53 and the Po turned out to be 0.000298 cm/s. Also, in series [5], the “Brain Kin” value was 0.00364 mL/s/g, the “Extraction (unbound)” value is recorded as 66.6% and the “Brain vascular extraction (total)” value is 15.2%. Besides, in series [6], the “Log Poct” value was 2.24 and the “Log Doct pH=7.4” value is given as 2.17. For the same compound, the “fu,.p” value in series [7] is recorded as 0.15. Further, the “Brain Vu,br” value in [8] is 12.7 mL/g.
Take `OC[C@@H](O)[C@@H](O)CO` [Erythritol]: in series [2], the “fn (%)” value is listed as 100%. Further, the half-life in [3] (brain) came out at 160 min. For the same compound, in series [4], the “Log Pc” value is −6.49, the “Log PoS” value is listed as −4.49, the Pc worked out at 0.324 ×10⁻⁶ cm/s and the PcS came out at 3.2e-05 mL/s/g. Also, in [4], the PoS was 3.24e-05 mL/s/g, the “Log Po” value is given as −6.49 and the Po was found to be 3.24e-07 cm/s. In series [5], the “Brain Kin” value was 9.27e-05 mL/s/g, the “Extraction (unbound)” value was 0.15% and the “Brain vascular extraction (total)” value was 0.15%. Further, in series [6], the “Log Poct” value is −2.29 and the “Log Doct pH=7.4” value is listed as −2.29. In addition, the “fu,.p” value in series [7] is 1.00. In addition, the “Brain Vu,br” value in [8] is 0.50 mL/g.
Turning to `N[C@@H](Cc1ccc(N(CCCl)CCCl)cc1)C(=O)O` [Melphalan (para)], in series [1], the “Log Doct 7.4” value was −1.03 and the “Log Poct” value turned out to be 1.79.
The compound `N[C@H](C(=O)O)[C@@H]1CC(Cl)=NO1` [Acivicin] gave a LogPS on Lat-1 (setting [10]) of −3.32. The same compound showed a PS on Lat-1 (setting [11]) of 0.000479 mL/s/g. In addition, in series [1], the “Log Doct 7.4” value is given as −2.63 and the “Log Poct” value is on record as −0.31.
`NCC1(CC(=O)O)CCCCC1` [Gabapentin]: on Lat-1 (rat, in vivo, pH 7.4), the LogPS is on record as −2.33 and the PS was determined as 0.00473 mL/s/g. Also, in [1], the “Log Doct 7.4” value is on record as −1.4 and the “Log Poct” value is recorded as 1.19.
As to `CC(C(=O)O)c1ccc(-c2ccccc2)c(F)c1` (stereo not shown) [Flurbiprofen], the “fn (%)” value in series [2] was 0.06%. Further, the half-life in [3] (brain) came out at 3.9 min. In addition, in series [4], the “Log Pc” value is on record as −3.64, the “Log PoS” value is 1.58, the Pc was found to be 230 ×10⁻⁶ cm/s and the PcS is 0.023 mL/s/g. Moreover, in series [4], the PoS stood at 38.2 mL/s/g, the “Log Po” value is recorded as −0.42 and the Po came out at 0.38 cm/s. Further, in series [5], the “Brain Kin” value was 0.000144 mL/s/g, the “Extraction (unbound)” value is 61.6% and the “Brain vascular extraction (total)” value is 0.60%. In series [6], the “Log Poct” value is listed as 3.99 and the “Log Doct pH=7.4” value is reported as 0.91. In series [7], the “fu,.p” value is given as 6.3E−03. In addition, the “Brain Vu,br” value in series [8] is recorded as 7.76 mL/g.
On to `C[N+](C)(C)CCO` [Choline], for which, in the series on Choline transporter, the “Log PS” value is −2.89. Also, in the series with Choline transporter (S 20 s), the PS was 0.0013 mL/s/g. In series [1], the “Log Doct 7.4” value was −3.70.
With `CCCC(C)C1(CC)C(=O)NC(=O)NC1=O` (stereo not shown) [Pentobarbital], in series [2], the “fn (%)” value is reported as 75.1%. Further, the half-life in series [3] turned out to be 1.44 min. Moreover, in series [3] (plasma), the half-life came out at 1.4 min. In series [4], the “Log Pc” value was −3.35, the “Log PoS” value is −1.22, the Pc worked out at 450 ×10⁻⁶ cm/s and the PcS was 0.045 mL/s/g. For the same compound, in series [4], the PoS amounted to 0.0599 mL/s/g, the “Log Po” value was −3.22 and the Po worked out at 0.000599 cm/s. Moreover, in “in vivo”, the half-life was 1.15 min. Further, in [6], the “Log Poct” value is listed as 2.08 and the “Log Doct pH=7.4” value is given as 2.01. Moreover, the “fu,.p” value in series [7] is 0.60.
With `Cc1c(I)c(=O)n(-c2ccccc2)n1C` [Iodoantipyrine], in series [2], the “fn (%)” value is recorded as 100%. This compound also showed a half-life in [3] (brain) of 0.5 min. In addition, in series [4], the “BBB PcS” value is recorded as 0.156 mL/s/g, the “Log Pc” value is given as −2.81, the “Log PoS” value is −0.81 and the Pc came to 1560 ×10⁻⁶ cm/s. In [4], the PcS worked out at 0.16 mL/s/g, the “Percentage printed beside the uptake curves (measure not given)” value is given as 79%, the PoS was 0.16 mL/s/g and the “Log Po” value is reported as −2.81. This compound also showed a Po in series [4] of 0.00156 cm/s. Moreover, in series [5], the “Brain Kin” value is 0.0231 mL/s/g, the “Extraction (unbound)” value is 99.8% and the “Brain vascular extraction (total)” value is 96.1%. For the same compound, the “Peak flow rate for 90% E” value in series [5] (protein-free physiologic saline pH 7.4) is 4.1 mL/min/g. Further, the “Maximal flow—90% extraction, PcS/2.3” value in series [5] (protein-free saline, pH 7.4) stood at 0.068 mL/s/g. Further, in [6], the “Log Poct” value is given as 1.27 and the “Log Doct pH=7.4” value was 1.27. Further, in [7], the “fu,.p” value is 0.50. For the same compound, in series [8], the “Brain Vu,br” value is given as 2 mL/g.
At Lat-1 (rat, in vivo, pH 7.4), `CC(C)C[C@H](CN)CC(=O)O` [Pregabalin] registered a LogPS of −3.01 and a PS of 0.000976 mL/s/g. In addition, in [1], the “Log Doct 7.4” value is listed as −1.75 and the “Log Poct” value stood at 1.12.
Consider `O=C(CO)[C@@H](O)[C@H](O)[C@H](O)CO` [Fructose], for which the “fn (%)” value in series [2] is 100%. The half-life in series [3] was 168 min. Besides, in [5], the “Brain Kin” value was 5.74e-06 mL/s/g, the “Extraction (unbound)” value was 2.39E-04% and the “Brain vascular extraction (total)” value is reported as 2.39E-04%. In [6], the “Log Poct” value is −3.20 and the “Log Doct pH=7.4” value is given as −3.20. For the same compound, the “fu,.p” value in series [7] is on record as 1.00. In series [8], the “Brain Vu,br” value is given as 0.08 mL/g. In addition, in series [9] (Pc in cm/s), the “Log Pc” value is −7.24. For the same compound, the “Log Po” value in series [9] (Po in cm/s) is −7.24. The “Log PoS” value in [9] (PoS in mL/s/g) is −5.24. Moreover, in series [9] (S assumed 100 cm^2/g), the Pc worked out at 0.0574 ×10⁻⁶ cm/s and the Po came out at 0.0574 ×10⁻⁶ cm/s. This compound registered a PoS in series [9] (brain vascular intrinsic PoS) of 5.74e-06 mL/s/g. In addition, the PcS in series [9] (cerebral cortex, flow 0.1–[…], S = physiological saline, AB = artificial blood) was 5.74e-06 mL/s/g. Further, the PoS in series [9] (intrinsic PS of neutral solute, PoS = PcS/fn, flow 0.1–[…]) turned out to be 5.74e-06 mL/s/g.
